According to patent US6124324A, “Thiophene-ethyl thiourea compounds and use” (Hughes Institute, priority 1999, dated 2000):
Read-outs that look alike come from different tables or passages of the source.

Experiments:
[1] = target: T1, purified recombinant HIV RT (Human immunodeficiency virus type 1 group M subtype B, UniProt P04585); assay: Purified RT assay, cell-free Quan-T-RT system (scintillation proximity); type: biochemical
T1 construct: purified recombinant HIV RT; purchased Amersham, Arlington Heights, Ill; (Quan-T-RT system)
Method: The synthesized compounds were tested for RT inhibitory activity (IC50 [rRT]) against purified recombinant HIV RT using the cell-free Quan-T-RT system (Amersham, Arlington Heights, Ill.), which utilizes the scintillation proximity assay principle as decribed in Bosworth, et al., 1989, Nature 341:167-168. In the assay, a DNA/RNA template is bound to SPA beads via a biotin/strepavidin linkage. The primer DNA is a 16-mer oligo(T) which has been annealed to a poly(A) template. The primer/template is bound to a strepavidin-coated SPA bead.
^3 H-TTP is incorporated into the primer by reverse transcription. In brief, ^3 H-TTP, at a final concentration of 0.5 μCi/sample, was diluted in RT assay buffer (49.5 mM Tris-Cl, pH 8.0, 80 mM KCl, 10 Mm MgCl2, 10 mM DTT, 2.5 mM EGTA, 0.05% Nonidet-P-40), and added to annealed DNA/RNA bound to SPA beads. The compound being tested was added to the reaction mixture at 0.001 μM-100 μM concentrations. […] The reaction was stopped by addition of 0.2 ml of 120 mM EDTA. The samples were counted in an open window using a Beckman LS 7600 instrument and IC50 values were calculated by comparing the measurements to untreated samples.

[2] = tested on: HIV-1 strain A17 variant (Y181C, K103N); assay: microbe, parasite or virus in culture; type: cell-based
Method: (§1) In addition, the anti-HIV activity of the compounds was measured by determining their ability to inhibit the replication of the HIV-1 strains HTLVIIIB, RT-MDR, A17, and A17 variant in peripheral blood mononuclear cells (PBMC) from healthy volunteer donors, using the method described in Uckun et.al., 1998, Antimicrobial Agents and Chemotherapy 42:383.
(§2) Normal human peripheral blood mononuclear cells (PBMNC) from HIV-negative donors were cultured 72 hours in RPMI 1640 supplemented with 20% (v/v) heat-inactivated fetal bovine serum (FBS), 3% interleukin-2,2 mM L-glutairine, 25 mM HEPES, 2 μL, NAHCO, […] gentamicin, and 4 Ag/mL phytohemagglutinin prior to exposure to HIV-1 or other HIV strain. The cells were then infected with virus at a multiplicity of infection (MOI) of 0.1 during a one-hour adsorption period at 37° C. in a humidified 5% CO2 atmosphere. Subsequently, cells were cultured in 96-well microplates (100 μL/well; 2×10^6 cells/mL, triplicate wells) in the presence of various inhibitor concentrations. Aliquots of culture supernatants were removed from the wells on the 7 th day after infection for p24 antigen p24 enzyme immunoassays (EIA), as previously described in Erice et al., 1993, Antimicrob. Ag. Chemotherapy 37:385-838. The applied p24 EIA was the unmodified kinetic assay commercially available from Coulter Corporation/Immunotech, Inc. (Westbrook, Me.).
(§3) Percent inhibition of viral replication was calculated by comparing the p24 values from the test substance-treated infected cells with p24 values from untreated infected cells (i.e, virus controls).
(§4) RT-MDR was obtained through the AIDS Research and Reference Reagent Program, from Dr. Bendan Larder, and is described in Larder et al., 1993, Nature, 365, 451-453.

[3] = tested on: HIV-1 strain RT-MDR (V106A); assay: microbe, parasite or virus in culture; type: cell-based; conditions: for IC50: read-out: IC50 RT-MDR (V106A); for effectiveness against RT-MDR versus HTLVIIIB: more effective against RT-MDR than against HTLVIIIB
Method: as §1, §2, §3, §4

[4] = tested on: HIV-1 strain A17 (Y181C); assay: microbe, parasite or virus in culture; type: cell-based; conditions: for IC50: read-out: IC50 A17 (Y181C)
Method: as §1, §2
(§5) Percent inhibition of viral replication was calculated by comparing the p24 values from the test substance-treated infected cells with p24 values from untreated infected cells (i.e, virus controls). […]

[5] = Microculture Tetrazolium Assay (MTA), cytotoxicity; type: cell-based
Method: A Microculture Tetrazolium Assay (MTA), using 2,3-bis(2-methoxy-4-nitro-5-sulfophenyl)-5-[(phenylamino)-carbonyl]-2H-tetrazolium hydroxide (XTT), was performed to evaluate the cytotoxicity of the compounds, using the methods described, for example, in Uckun et.al., 1998, Antimicrobial Agents and Chemotherapy 42:383; and Mao et.al., 1998, Bioorg. Med. Chem. Lett. 8:2213.

[6] = tested on: HIV-1 strain HTLVIIIB; assay: Inhibition of replication of HIV-1 strain HTLVIIIB in PBMC (p24 antigen EIA); type: cell-based
Method: as §1, §2, §5

[7] = tested on: NNI-resistant HIV-1 strains; conditions: earlier publication (Mao et al., 1999); cited from earlier work
[8] = tested on: HIV-1 strain HTLVIIIB; conditions: earlier publication (Mao et al.), cited from earlier work
[9] = IC50 rRT, Table 2; recombinant HIV RT
[10] = inhibition of p24 antigen production in PBMC, read-out: IC50 A17 Varient (Y181C, K103N)
[11] = inhibition of p24 antigen production in PBMC
[12] = XTT cytotoxicity, read-out: CC50 MTA
[13] = Human immunodeficiency virus 1, IIIB, inhibition of p24 antigen production in PBMC, read-out: IC50 HTLV IIIB
[14] = Human immunodeficiency virus 1, PBMC, read-out: IC50 A17 Varient (Y181C, K103N)
[15] = Human immunodeficiency virus 1, PBMC
[16] = IC50 rRT, Table 1 and text; recombinant HIV RT
[17] = Table 1 and text; recombinant HIV RT; read-out: IC90 rRT
[18] = Human immunodeficiency virus 1, IIIB, PBMC, read-out: IC50 HTLV IIIB

## Cc1cn([C@H]2C[C@H](N=[N+]=[N-])[C@@H](CO)O2)c(=O)[nH]c1=O [AZT, reference compound]
[1]; [9]
  IC50: > 100 µM
[2]; [10]
  IC50: 0.004 µM
[3]; [11]
  IC50: 0.2 µM
[4]; [11]
  IC50: 0.006 µM
[5]; [12]
  CC50: > 100 µM

## CC(C)Nc1cccnc1N1CCN(C(=O)c2cc3cc(NS(C)(=O)=O)ccc3[nH]2)CC1 [Delavirdine, reference compound]
[6]; [13]
  IC50: 0.009 µM
[2]; [14]
  IC50: > 100 µM
[3]; [15]
  IC50: 0.4 µM
[4]; [15]
  IC50: 50 µM

## CN1CCCC1CCNC(=S)Nc1ccc(Br)cn1 (stereo not shown) [HI-206, N-[2-(1-methyl-2-pyrrolidinylethyl)]-N'-[2-(5 bromopyridyl)]thiourea]
[1]; [16]
  IC50: > 100 µM
[1]; [17]
  IC90: > 100 µM

## S=C(NCCN1CCCC1)Nc1ccc(Br)cn1 [HI-230, N-[2-(1-pyrolidylethyl)]-N'-[2-(5-bromopyridyl)]thiourea]
[1]; [16]
  IC50: 4.9 µM
[1]; [17]
  IC90: > 100 µM

## Fc1ccccc1CCNC(=S)Nc1ccc(Br)cn1 [HI-240, N-[2-(2-fluorophenethyl)]-N'-[2-(5-bromopyridyl)]thiourea]
[6]; [13]
  IC50: < 0.001 µM
[2]; [14]
  IC50: 41 µM
[3]; [15]
  IC50: 0.005 µM
[4]; [15]
  IC50: 0.2 µM
[5]; [12]
  CC50: > 100 µM

## S=C(NCc1ccc2c(c1)OCO2)Nc1ccc(Br)cn1 [HI-257, N-[2-(1-piperonyl)]-N'-[2-(5-bromopyridyl)]thiourea]
[1]; [16]
  IC50: 0.7 µM
[1]; [17]
  IC90: > 100 µM

## S=C(NCCN1CCNCC1)Nc1ccc(Br)cn1 [HI-258, N-[2-(1-piperizinylethyl)]-N'-[2-(5-bromopyridyl)]thiourea]
[7]
  inhibition of replication of NNI-resistant HIV-1 strains: neither compound inhibited the replication
[8]; HTLVIIIB
  antiviral potency relative to trovirdine: more potent than trovirdine
[8]; human PBMC
  abrogated the replication of HTLVIIIB: nanomolar concentrations

## S=C(NCCN1CCOCC1)Nc1ccc(Br)cn1 [HI-276, N-[2-(5-Bromopyridinyl)]-N'-[2-(4-Morpholinoethyl)]thiourea]
[1]; [16]
  IC50: > 100 µM
[1]; [17]
  IC90: > 100 µM

## S=C(NCCc1cnc[nH]1)Nc1ccc(Br)cn1 [HI-436, N-[2-(5-Bromopyridinyl)]-N'-[2-(2-Imidazolylethyl)]thiourea]
[1]; [16]
  IC50: > 100 µM
[1]; [17]
  IC90: > 100 µM

## S=C(NCCc1c[nH]c2ccccc12)Nc1ccc(Br)cn1 [HI-442, N-[2-(5-Bromopyridinyl)]-N'-[2-(3-Indolylethyl)]thiourea]
[1]; [16]
  IC50: 0.9 µM
[1]; [17]
  IC90: > 100 µM

## S=C(NCCc1cccs1)Nc1ccc(Br)cn1 [HI-443, N-[2-(5-Bromopyridinyl)]-N'-[2-(2-Thiophenylethyl)]thiourea]
[1]; [16]
  IC50: 0.8 µM
[1]; [9]
  IC50: 5.3 µM
[1]; [17]
  IC90: 15 µM
[1]; read-out: IC90 rRT; Table 1 and text; recombinant HIV RT
  IC90: 12 µM
[1]; recombinant RT in vitro
  inhibited recombinant RT in vitro: more than 90%
[6]; [18]
  IC50: 0.03 µM
[6]; Human immunodeficiency virus 1, PBMC, read-out: average IC50, HTLVIIIB replication
  IC50: 0.03 µM
[6]; times higher than IC50 of HI-172
  IC50 HTLVIIIB relative to HI-172: 30 times
[6]; times higher than IC50 of trovirdine
  IC50 HTLVIIIB relative to trovirdine: 5 times
[2]; Human immunodeficiency virus 1, PBMC, read-out: IC50, A17 variant replication
  IC50: 3.26 µM
[2]; [14]
  IC50: 3.26 µM
[2]; fold lower potency than HTLVIIIB, 10080 min
  potency against A17 variant versus HTLVIIIB: 100 fold
[3]; [15]
  IC50: 0.004 µM
[3]
  effectiveness against RT-MDR versus HTLVIIIB: ten
[3]; 10080 min
  effectiveness against RT-MDR versus HTLVIIIB: 10 times
[3]; more potent than AZT
  potency against RT-MDR relative to AZT: 50 times
[3]; more potent than HI-172
  potency against RT-MDR relative to HI-172: 25,000 times
[3]; more potent than HI-240
  potency against RT-MDR relative to HI-240: 1.25 times
[3]; more potent than MKC-442
  potency against RT-MDR relative to MKC-442: 75 times
[3]; more potent than delavirdine
  potency against RT-MDR relative to delavirdine: 100 times
[3]; more potent than nevirapine
  potency against RT-MDR relative to nevirapine: 1250 times
[3]; more potent than trovirdine
  potency against RT-MDR relative to trovirdine: 5 times
[4]; [15]
  IC50: 0.048 µM
[4]; more potent than HI-172
  potency against A17 relative to HI-172: 2083 times
[4]; more potent than HI-240
  potency against A17 relative to HI-240: 4.2 times
[4]; more potent than delavirdine
  potency against A17 relative to delavirdine: 1042 times
[4]; more potent than nevirapine
  potency against A17 relative to nevirapine: 2083 times
[4]; more potent than trovirdine
  potency against A17 relative to trovirdine: 10 times
[5]; [12]
  CC50: > 100 µM

## S=C(NCc1ccco1)Nc1ccc(Br)cn1 [HI-503, N-[2-(5-Bromopyridinyl)]-N'-[2-(2-Furylmethyl)]thiourea]
[1]; [16]
  IC50: 1.2 µM
[1]; [17]
  IC90: > 100 µM

## CCOCn1c(Cc2ccccc2)c(C(C)C)c(=O)[nH]c1=O [MKC-442, reference compound]
[3]; [15]
  IC50: 0.3 µM
[5]
  CC50: > 100 µM

## Cc1ccnc2c1NC(=O)c1cccnc1N2C1CC1 [Nevirapine, reference compound]
[6]; [13]
  IC50: 0.034 µM
[2]; [10]
  IC50: > 100 µM
[3]; [11]
  IC50: 5 µM
[4]; [11]
  IC50: > 100 µM

## S=C(NCCc1ccccn1)Nc1ccc(Br)cn1 [Trovirdine, reference compound]
[1]; [17]
  IC90: 12 µM
[1]; recombinant RT in vitro
  inhibited recombinant RT in vitro: more than 90%
[6]; [18]
  IC50: 0.007 µM
[2]; [14]
  IC50: > 100 µM
[3]; [15]
  IC50: 0.02 µM
[4]; [15]
  IC50: 0.5 µM
[5]
  CC50: > 100 µM
